Test results as given in patent US20090155869A1 (Gevo, Inc., priority 2006, published 2009).

Columns and labels:
[1] = test system: C. acetobutylicum P262 Bcd; settings: read-out: Km of the C. acetobutylicum P262 Bcd for butyryl-CoA; cited from earlier work
Bcd = settings: read-out: Km of Bcd for butyryl-CoA; unit inferred; cited from earlier work
[2] = in-vitro activity assay of Hbd homologues in lysate, NADH consumption at 340 nm; format: biochemical; settings: lysate of GEVO768 (E. coli W3110Z1) transformant, 0.1 mM acetoacetyl CoA, 0.2 mM NADH, pH 7.0
Text: (§1) In particular, homologues of the pathway enzymes hydroxyl butyryl CoA dehydrogenase (Hbd), crotonase (Crt) and thiolase (Th1) were expressed and compared by in-vitro activity assay. The hydroxyl butyryl CoA dehydrogenase homologues tested were pGV1037 (Hbd from Clostridium acetobutylicum), pGV1041 (Hbd from Butyrivibrio fibrisolvens), pGV1050 (Hbd from Clostridium beijerinkii), and pGV1154 (Hbd from Clostridium acetobutylicum, codon optimized gene sequence). The crotonase homologues tested were pGV1040 (Crt from Butyrivibrio fibrisolvens), pGV1049 (Crt from Clostridium beijerinkii), pGV1094 (Crt from Clostridium acetobutylicum) and pGV1189 (Crt from Clostridium acetobutylicum, codon optimized gene sequence). The thiolase homologues tested were pGV1035 (Th1 from Clostridium acetobutylicum), pGV1039 (Th1 from Butyrivibrio fibrisolvens), and pGV1188 (Th1 from Clostridium acetobutylicum, codon optimized gene sequence). The genes were expressed and assayed as per the following outlined protocol
(§2) GEVO768 (E. coli W3110Z1) was transformed with each of the plasmids and the transformants were plated on LB media with 100 μg/mL of chloramphenicol. The plates were incubated at 37° C. for 14-16 hours. Single colonies of the clones were used to inoculate 3 mL of LB media with 100 μg/mL of chloramphenicol. The cultures were incubated overnight at 37° C. at 250 rpm. The overnight cultures were used to inoculate 50 mL of EZ-rich medium in shake flasks with 100 μg/mL of chloramphenicol. The cultures were incubated at 37° C. at 250 rpm. At mid-exponential growth phase (OD600 0.6-0.8) the cultures were induced with 1 mM IPTG. […]
(§3) To test the activity of Hbd, 10 μL of the lysate was added to 190 μL of 50 mM MOPS pH 7.0 buffer containing 0.1 mM acetoacetyl CoA, and 0.2 mM NADH. The activity of Hbd was measured by monitoring the consumption of NADH at 340 nm. […] Enzyme activity was measured by monitoring the consumption of crotonyl CoA at 263 nm. […] Enzyme activity was measured by monitoring the consumption of acetoacetyl CoA at 303 nm. […]

M. elsdenii Bcd = target: T1, M. elsdenii Bcd (Megasphaera elsdenii, UniProt Q06319); settings: inhibition of M. elsdenii Bcd; cited from earlier work
T1 sequence (Q06319 1-383): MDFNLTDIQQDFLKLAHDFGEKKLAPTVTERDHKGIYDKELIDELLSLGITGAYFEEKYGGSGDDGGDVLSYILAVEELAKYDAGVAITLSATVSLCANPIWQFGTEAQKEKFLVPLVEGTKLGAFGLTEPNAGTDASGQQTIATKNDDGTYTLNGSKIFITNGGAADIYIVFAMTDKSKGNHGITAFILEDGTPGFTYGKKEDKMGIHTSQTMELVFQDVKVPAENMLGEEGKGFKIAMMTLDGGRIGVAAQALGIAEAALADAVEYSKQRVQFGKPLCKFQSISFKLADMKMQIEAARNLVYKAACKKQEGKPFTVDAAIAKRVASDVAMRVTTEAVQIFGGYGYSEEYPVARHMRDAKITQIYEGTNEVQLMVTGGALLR

[3] = target: crotonase (Crt) from C. acetobutylicum (Clostridium acetobutylicum, UniProt P52046); settings: crotonyl-CoA as substrate of C. acetobutylicum crotonase; cited from earlier work
[4] = in-vitro activity assay of Crt homologues in lysate, crotonyl CoA consumption at 263 nm; format: biochemical; settings: lysate of GEVO768 (E. coli W3110Z1) transformant, 30 μM crotonyl CoA, pH 7.6
Text: as §1, §2, §3

Q: Which Km [1] does the source give for `CCCC(=O)SCCNC(=O)CCNC(=O)[C@H](O)C(C)(C)COP(=O)(O)OP(=O)(O)OC[C@H]1O[C@@H](n2cnc3c(N)ncnc32)[C@H](O)[C@@H]1OP(=O)(O)O` [butyryl-CoA] here?
A: ~6 µM

Q: What about the Km (Bcd) of the same molecule?
A: 5 µM

Q: With “pGV1037: plasmid-expressed Hbd from Clostridium acetobutylicum” as the molecule, how does the “Specific activity (Hbd)” value [2] read?
A: 3.51 nmol/min/μg total cell protein

Q: For “pGV1154: plasmid-expressed Hbd from Clostridium acetobutylicum, codon optimized gene sequence”, which “Specific activity (Hbd)” value [2] is on record?
A: 11.69 nmol/min/μg total cell protein

Q: What about the “Specific activity (Hbd)” value ([2]; listed as Hbd) of the same molecule?
A: 11.6 nmol/min/μg total cell protein

Q: For `CC(=O)CC(=O)O` [acetoacetate], which Ki (M. elsdenii Bcd) is on record?
A: 100 nM

Q: With `C/C=C/C(=O)SCCNC(=O)CCNC(=O)[C@H](O)C(C)(C)COP(=O)(O)OP(=O)(O)OC[C@H]1O[C@@H](n2cnc3c(N)ncnc32)[C@H](O)[C@@H]1OP(=O)(O)O` [crotonyl-CoA] as the molecule, how does the Km [3] read?
A: 30 µM

Q: And the Vmax [3]?
A: 6.5×10^6 moles per min per mole

B1: GV1189: plasmid-expressed Crt from Clostridium acetobutylicum, codon optimized gene sequence (protein, UniProt P52046 1-261, looked up)
Short-chain-enoyl-CoA …: MELNNVILEKEGKVAVVTINRPKALNALNSDTLKEMDYVIGEIENDSEVLAVILTGAGEKSFVAGADISEMKEMNTIEGRKFGILGNKVFRRLELLEKPVIAAVNGFALGGGCEIAMSCDIRIASSNARFGQPEVGLGITPGFGGTQRLSRLVGMGMAKQLIFTAQNIKADEALRIGLVNKVVEPSELMNTAKEIANKIVSNAPVAVKLSKQAINRGMQCDIDTALAFESEAFGECFSTEDQKDAMTAFIEKRKIEGFKNR
Q: With B1 as the molecule, how does the “Specific activity (Crt)” value [4] read?
A: 916.99 nmol/min/μg total cell protein

Q: And the “Specific activity (Crt)” value ([4]; listed as crotonase)?
A: 1178 nmol/min/μg total cell protein

B2: pGV1094: plasmid-expressed Crt from Clostridium acetobutylicum (protein, UniProt P52046 1-261, looked up)
Short-chain-enoyl-CoA …: B1 Short-chain-enoyl-CoA …
Q: Which “Specific activity (Crt)” value [4] does the source give for B2 here?
A: 83.39 nmol/min/μg total cell protein
